Patent EP0341318A1, “NOVEL PLATINUM (II) COMPLEX, PROCESS FOR PREPARING THE SAME, AND THERAPEUTIC AGENT FOR MALIGNANT TUMOR” (TORAY INDUSTRIES, INC., priority 1987, dated 1989)
Several values for one entry are separate records, joined by “and”; a condition that tells them apart may be missing. Equal values may be shown once.

How the values were obtained:
L1210 murine leukemia = experiment: Antitumor activity against L1210 murine leukemia in mice; format: in vivo, CDF1 mice; details: for Survival days (mean±SD): administered on 1st, 5th and 9th days after tumor inoculation, CDF1 mice, 10^5 L1210 cells i.p.; for T/C (%) / Survival rate: days 1, 5, 9; for T/C (%): L1210 in CDF1 mice; for Survival rate: Number of 30 days survival mice / group
Experimental: L1210 murine leukemia cells which were subcultured in DBA/2 mouse were inoculated intraperitoneally into CDF1 mice at 10^5 cells/mouse. Each experimental group was composed of 6-10 mice (male, 6-weeks old). Each test compound was administered three times, i.e., on the lst, 5th and 9th days after tumor inoculation. CBDCA and CDDP were used as control drugs in this experiment. Each compound was dissolved or suspended in 0.05% Tween 80 solution and administered in mice. Antitumor activity against L1210 leukemia was determined by T/C value calculated by the following equation and by the number of 30 days survival mice. [formula]
The antitumor activities of the compounds Nos. 3 to 5 of this invention were determined in the same way as in Example 6.

Slc:ICR mice = experiment: Acute toxicity test on mice; format: in vivo; details: intraperitoneal injection, Slc:ICR mice (male, 5 weeks old), mortality on the 14th day
Experimental: Each test compound was intraperitoneally injected into Slc:ICR mice (male, 5 weeks old). Each compound was formulated into a solution or suspension in a 0.05% Tween 80 solution. The LD50 value was calculated from mortality found on the 14th day after said injection.

Compound	Survival days (mean±SD) (L1210 murine leukemia; Dose 1 mg/kg)	T/C (%) (L1210 murine leukemia; Dose 1 mg/kg)	Survival days (mean±SD) (L1210 murine leukemia; Dose 10 mg/kg)	T/C (%) (L1210 murine leukemia; Dose 10 mg/kg)	Survival days (mean±SD) (L1210 murine leukemia; Dose 25 mg/kg)	T/C (%) (L1210 murine leukemia; Dose 25 mg/kg)	Survival days (mean±SD) (L1210 murine leukemia; Dose 50 mg/kg)	T/C (%) (L1210 murine leukemia; Dose 50 mg/kg)	Survival days (mean±SD) (L1210 murine leukemia; Dose 100 mg/kg)	T/C (%) (L1210 murine leukemia; Dose 100 mg/kg)	Survival days (mean±SD) (L1210 murine leukemia; Dose 200 mg/kg)	T/C (%) (L1210 murine leukemia; Dose 200 mg/kg)	Survival rate (L1210 murine leukemia; dose 1 mg/kg)	Survival rate (L1210 murine leukemia; dose 10 mg/kg)	Survival rate (L1210 murine leukemia; dose 25 mg/kg)	Survival rate (L1210 murine leukemia; dose 50 mg/kg)	Survival rate (L1210 murine leukemia; dose 100 mg/kg)	Survival rate (L1210 murine leukemia; dose 200 mg/kg)	LD50 (Slc:ICR mice)	further results
3-Heptafluorobutyryl-D-camphor-hydroxo(trans-l-1,2-diaminocyclohexane)platinum(II) [Compound No. 5]	9.0 ± 0.6 days	111%	14.7 ± 2.3 days	181%	19.8 ± 6.1 days	244%	15.3 ± 7.1 days	189%	4.2 ± 1.0 days	52%	2.0 ± 0.0 days	25%	0/6	0/6	1/6	0/6	0/6	0/6	47 mg/kg	
CC(C)(C)C(=O)C=C([O-])C(F)(F)C(F)(F)C(F)(F)F.N[C@@H]1CCCC[C@H]1N.[OH-].[Pt+2] [Compound No. 1, 2,2-Dimethyl-6,6,7,7,8,8,8-heptafluoro-3,5-octanedione-hydroxo(trans-I-1,2-diaminocyclohexane)platinum(II)]	10.5 ± 1.2 days	130%	29.5 ± 1.2 days	364%	29.7 ± 0.5 days	367%	24.0 ± 10.3 days	296%	5.2 ± 1.9 days	64%	1.7 ± 0.5 days	21%	0/6	4/6	4/6	4/6	0/6	0/6	35 mg/kg	T/C (%) (L1210 murine leukemia; Dose 10 mg/kg, listed as compound No. 1, 10 mg/kg): greater than 360%; T/C (%) (L1210 murine leukemia; Dose 25 mg/kg, listed as compound No. 1, 25 mg/kg): greater than 360%; antitumor activity (L1210 murine leukemia; comparison in words with control drugs, L1210 in mice): higher than CDDP and CBDCA
2-(2-(2-Methoxyethoxy)ethoxy)ethyl 2,2-dimethyl-6,6,7,7,8,8,8-heptafluoro-3,5-dioxooctanoate- hydroxo(trans-l-1,2-diamino-cyclohexane)platinum(II) [Compound No. 4]	10.7 ± 2.7 days	127%	20.8 ± 7.8 days	248%	23.7 ± 5.9 days	282%	11.5 ± 9.5 days	137%	2.0 ± 0.0 days	24%	2.0 ± 0.0 days	24%	0/6	2/6	2/6	1/6	0/6	0/6		
cis-diammine-1,1-cyclobutanedicarboxylate platinum(II) [CBDCA, reference compound]	8.3 ± 0.5 days	98%	9.3 ± 0.5 days	109%	10.1 ± 1.3 days	119%	13.1 ± 2.3 days	156%	14.1 ± 3.7 days	166%	9.6 ± 0.7 days	113%	0/10	0/10	0/10	0/10	0/10	0/10		
N.N.[Cl][Pt][Cl] [CDDP, cis-diamminedichloroplatinum(II), reference compound]																				Survival days (mean±SD) (L1210 murine leukemia; Dose 2.5 mg/kg, 2.5 mg/kg): 14.7 ± 2.7 days and 12.0 ± 3.0 days and 13.2 ± 2.9 days; T/C (%) (L1210 murine leukemia; Dose 2.5 mg/kg): 181% and 143% and 163%; Survival days (mean±SD) (L1210 murine leukemia; Dose 5.0 mg/kg, 5 mg/kg): 18.8 ± 4.3 days and 14.3 ± 2.9 days and 13.7 ± 1.5 days and 16.0 ± 2.8 days; T/C (%) (L1210 murine leukemia; Dose 5.0 mg/kg): 232% and 170% and 163% and 198%; Survival days (mean±SD) (L1210 murine leukemia; Dose 7.5 mg/kg, 7.5 mg/kg): 18.7 ± 3.1 days and 15.5 ± 2.1 days and 14.2 ± 2.4 days; T/C (%) (L1210 murine leukemia; Dose 7.5 mg/kg): 231% and 185% and 175%; Survival rate (L1210 murine leukemia; dose 2.5 mg/kg): 0/6; Survival rate (L1210 murine leukemia; dose 5.0 mg/kg): 0/6; Survival rate (L1210 murine leukemia; dose 7.5 mg/kg): 0/6
N[C@@H]1CCCC[C@H]1N.O=C(O)CC(=O)C=C([O-])C(F)(F)C(F)(F)C(F)(F)F.[OH-].[Pt+2] [Compound No. 3, 6,6,7,7,8,8,8-Heptafluoro-3,5-dioxooctanoic acid hydroxo-(trans-l-1,2-diaminocyclohexane)platinum(II)]	9.7 ± 1.4 days	115%	9.7 ± 1.4 days	115%	11.0 ± 0.9 days	131%	11.8 ± 0.8 days	140%	14.0 ± 2.7 days	167%	11.2 ± 3.7 days	133%	0/6	0/6	0/6	0/6	0/6	0/6	>200 mg/kg	
